For 28 compounds, EC50, AC50 and IC50 results are on record in ChEMBL document CHEMBL1201862, “PubChem BioAssay data set” (2004).

Active and inactive are the calls of the source. Cut-off read from the data, not from the text of the source, for most assays here: actives have a measured EC50 and inactives only a lower limit.

Assay [1] is described as follows: Luminescence Cell-Based Dose Response HTS to Identify Inhibitors of 5'UTR Stem-Loop Driven Prion Protein mRNA Translation in H4 Neuroglioblastoma Cells. [Related pubchem assays: 1827 (Project Summary), 1813 (Primary HTS)]. The format is functional.
A short description of assay [2]: alpha-synuclein stem-loop luciferase translation blockers – H4 neuroglioma cells, luminescence, confirmation (AID 1988). The class given is functional, cell-based.
Assay [3] can be described thus: luciferase reporter signal suppression in cells – H4 neuroglioma cells, luminescence, dose response (AID 1990). The class given is functional, cell-based. (A reporter such as luciferase makes a cellular process visible.)
Another assay concerns the target T1, Cytochrome P450 1A2 (Homo sapiens, UniProt P05177).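 Note: PubChem cytochrome P450 panel assay, CYP1A2 panel member.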
T1 sequence (P05177 whole entry): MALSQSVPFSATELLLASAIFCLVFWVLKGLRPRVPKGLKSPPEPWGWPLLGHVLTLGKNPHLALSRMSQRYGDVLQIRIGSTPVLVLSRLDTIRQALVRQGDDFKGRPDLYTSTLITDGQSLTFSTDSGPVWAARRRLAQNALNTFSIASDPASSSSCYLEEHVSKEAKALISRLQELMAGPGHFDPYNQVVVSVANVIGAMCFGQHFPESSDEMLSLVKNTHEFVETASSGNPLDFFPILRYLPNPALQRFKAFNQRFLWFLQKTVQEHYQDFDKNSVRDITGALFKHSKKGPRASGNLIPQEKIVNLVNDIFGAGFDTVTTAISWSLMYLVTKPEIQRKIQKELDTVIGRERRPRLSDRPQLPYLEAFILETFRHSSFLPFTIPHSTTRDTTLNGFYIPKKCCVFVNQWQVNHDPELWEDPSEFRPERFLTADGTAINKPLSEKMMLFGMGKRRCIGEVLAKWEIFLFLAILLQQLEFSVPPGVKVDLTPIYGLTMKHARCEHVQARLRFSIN

A short description of the next assay: cells. The format is functional.
For the next assay, the target named is T2, Streptokinase A (Streptococcus pyogenes serotype M1, UniProt P10520).
T2 sequence (P10520 whole entry): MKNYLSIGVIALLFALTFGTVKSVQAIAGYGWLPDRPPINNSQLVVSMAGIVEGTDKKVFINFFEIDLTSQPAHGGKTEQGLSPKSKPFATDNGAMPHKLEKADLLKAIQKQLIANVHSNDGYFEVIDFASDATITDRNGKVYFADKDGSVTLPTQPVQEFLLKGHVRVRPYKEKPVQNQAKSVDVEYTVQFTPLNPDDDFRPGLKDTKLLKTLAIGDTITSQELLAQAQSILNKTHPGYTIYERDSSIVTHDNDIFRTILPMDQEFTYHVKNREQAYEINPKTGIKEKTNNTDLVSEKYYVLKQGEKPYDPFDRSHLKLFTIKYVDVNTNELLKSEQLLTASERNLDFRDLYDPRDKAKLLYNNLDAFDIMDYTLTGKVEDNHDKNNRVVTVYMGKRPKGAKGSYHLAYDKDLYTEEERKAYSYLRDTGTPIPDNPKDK
The experiment in a line: viability-normalized secreted streptokinase activity reduction – plasminogen activation absorbance, OD405, dose response (AID 1914).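 Note: secreted streptokinase activity via plasminogen activation per viability signal from cell pellet.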 The format is functional, Streptococcus pyogenes M1 GAS.

Another assay has as its system Streptococcus. The experiment in a line: GAS UMAA2166 growth inhibition – luminescence, BacTiterGlo, counter-screen for streptokinase expression inhibitor project, dose response (AID 1915).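 Note: potency for reduction of bacterial viability or growth.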 The format is functional, organism-based. In general terms: A counterscreen serves to expose hits that act by an unwanted route or on another target.
Assay [4] has as its system Streptococcus sp. 'group A'. The experiment in a line: Streptococcus pyogenes SK(-)GAS viability under kanamycin – luminescence, BacTiterGlo, confirmation, counter-screen for streptokinase expression inhibitor project, dose response (AID 1900). The class given is functional, organism-based.
For a further assay, the target named is T3, Protein RecA (Mycobacterium tuberculosis, UniProt P9WHJ3).
T3 sequence (P9WHJ3 whole entry): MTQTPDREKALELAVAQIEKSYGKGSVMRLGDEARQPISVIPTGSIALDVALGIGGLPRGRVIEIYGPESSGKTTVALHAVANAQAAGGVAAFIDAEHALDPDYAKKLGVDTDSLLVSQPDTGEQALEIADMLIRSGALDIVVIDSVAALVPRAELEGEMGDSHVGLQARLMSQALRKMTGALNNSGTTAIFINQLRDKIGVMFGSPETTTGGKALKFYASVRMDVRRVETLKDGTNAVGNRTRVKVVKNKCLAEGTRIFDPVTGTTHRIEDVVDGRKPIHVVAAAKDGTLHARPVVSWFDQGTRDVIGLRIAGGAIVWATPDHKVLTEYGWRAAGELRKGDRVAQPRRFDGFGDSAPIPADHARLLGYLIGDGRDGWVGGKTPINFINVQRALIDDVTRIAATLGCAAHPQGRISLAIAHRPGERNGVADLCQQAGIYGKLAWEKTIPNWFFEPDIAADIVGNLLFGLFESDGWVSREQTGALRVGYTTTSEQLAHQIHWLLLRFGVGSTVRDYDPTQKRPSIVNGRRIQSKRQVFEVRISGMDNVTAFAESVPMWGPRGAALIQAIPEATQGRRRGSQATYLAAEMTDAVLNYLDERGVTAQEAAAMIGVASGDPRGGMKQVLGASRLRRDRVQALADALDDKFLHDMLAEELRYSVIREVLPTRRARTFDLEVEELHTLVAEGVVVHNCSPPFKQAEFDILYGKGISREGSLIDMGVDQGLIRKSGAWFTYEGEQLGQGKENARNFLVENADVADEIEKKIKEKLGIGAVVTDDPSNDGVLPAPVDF
Nature of the assay: Fluorescence Cell-Free Homogeneous Dose Retest to Identify Inhibitors of RecA-Intein Splicing Activity. [Related pubchem assays (depositor defined):AID2097, AID2223, AID489010, AID492950]. The class given is functional.

The nature of assay [5]: Luminescence Cell-Based Dose Retest to Confirm Inhibitors of Cancer Stem Cells. [Related pubchem assays (depositor defined):AID2717, AID2721]. The class given is functional. As to conditions: Homo sapiens.
Assay [6] concerns the target T4, Replicative DNA helicase DnaB (Mycobacterium tuberculosis, UniProt P9WMR3).
T4 sequence (P9WMR3 whole entry): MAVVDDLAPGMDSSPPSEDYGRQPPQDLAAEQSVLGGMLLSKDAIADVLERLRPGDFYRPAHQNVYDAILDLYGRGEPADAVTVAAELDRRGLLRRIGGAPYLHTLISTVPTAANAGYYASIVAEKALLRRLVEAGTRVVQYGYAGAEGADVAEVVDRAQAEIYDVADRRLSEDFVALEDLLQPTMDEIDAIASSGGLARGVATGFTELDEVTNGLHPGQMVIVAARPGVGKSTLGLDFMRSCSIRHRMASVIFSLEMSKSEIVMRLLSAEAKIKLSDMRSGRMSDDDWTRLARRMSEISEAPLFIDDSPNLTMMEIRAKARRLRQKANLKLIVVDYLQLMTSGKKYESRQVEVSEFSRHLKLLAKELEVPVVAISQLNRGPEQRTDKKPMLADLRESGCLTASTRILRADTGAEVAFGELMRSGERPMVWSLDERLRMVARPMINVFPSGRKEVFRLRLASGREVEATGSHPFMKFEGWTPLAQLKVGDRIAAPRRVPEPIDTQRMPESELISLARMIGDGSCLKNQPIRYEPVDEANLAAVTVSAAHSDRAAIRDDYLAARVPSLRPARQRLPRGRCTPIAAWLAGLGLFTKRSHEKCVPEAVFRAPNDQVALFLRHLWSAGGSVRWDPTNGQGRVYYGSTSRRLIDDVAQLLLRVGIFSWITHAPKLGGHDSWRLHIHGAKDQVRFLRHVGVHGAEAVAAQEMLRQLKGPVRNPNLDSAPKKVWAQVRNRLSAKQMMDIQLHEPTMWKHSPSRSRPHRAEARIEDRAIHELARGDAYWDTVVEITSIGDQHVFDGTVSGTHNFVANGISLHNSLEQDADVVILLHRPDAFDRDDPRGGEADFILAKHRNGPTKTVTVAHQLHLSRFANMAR
The experiment in a line: DnaB intein splicing inhibitors, dose response, biochemical, cell-free fluorescence (AID 449749). The format is functional.

The target of the next assay is Paired box protein Pax-8 (Homo sapiens, UniProt Q06710). Nature of the assay: PAX8 transcriptional activity inhibition in RMG-I – RMG-I cells, luciferase, cherry-pick, dose response (AID 687027).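 Note: luciferase reporter driven by Pax8 target thyroperoxidase promoter measured by SteadyGlo luminescence.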 The class given is functional, cell-based.
Paired box protein Pax-8, sequence (Q06710 whole entry): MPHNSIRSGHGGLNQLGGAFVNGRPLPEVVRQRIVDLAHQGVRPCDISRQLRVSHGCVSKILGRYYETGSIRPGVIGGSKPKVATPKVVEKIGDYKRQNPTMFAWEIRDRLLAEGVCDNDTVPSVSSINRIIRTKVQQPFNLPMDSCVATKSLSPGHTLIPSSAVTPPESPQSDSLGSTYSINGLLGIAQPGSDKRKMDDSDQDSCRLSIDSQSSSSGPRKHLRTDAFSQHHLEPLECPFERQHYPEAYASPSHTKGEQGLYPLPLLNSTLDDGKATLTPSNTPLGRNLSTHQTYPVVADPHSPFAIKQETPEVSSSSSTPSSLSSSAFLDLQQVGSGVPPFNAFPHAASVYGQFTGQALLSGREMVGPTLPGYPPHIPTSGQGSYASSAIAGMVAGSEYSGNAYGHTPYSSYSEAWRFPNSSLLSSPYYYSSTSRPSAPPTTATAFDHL

Turning to `Cc1cc(-n2c(SCC(=O)NCc3cccs3)nc3nnc(C)c-3c2N)ccc1Cl`, the EC50 in assay [1] is > 120 µM (not active); in [2], 15.3 µM (active); in assay [3], 14.4 µM (active).

With `CN1C[C@H](C(=O)N[C@@]2(C)O[C@@]3(O)[C@H]4CCCN4C(=O)[C@@H](Cc4ccccc4)N3C2=O)C=C2c3cccc4[nH]cc(c34)C[C@@H]21`, the AC50 at Cytochrome P450 1A2 was 3.16 µM (inconclusive). Turning to `CC(C)(C)c1ccc(OCCCC(=O)NC2=NCCS2)cc1`, the IC50 in the assay “cells” was 20.1 µM (active). Moreover, the values for the EC50 (at Streptokinase A; with Streptococcus; in assay [4]) were > 150 µM (not active), > 150 µM (not active) and 19.8 µM (active), respectively. `COc1ccc(C(=O)N2CC3(CC(c4cccc([N+](=O)[O-])c4)=NO3)C[C@H]2C(=O)NCC(N)=O)cc1` (some centres undefined): the AC50 at Cytochrome P450 1A2 is 28.2 µM (inconclusive). For `CCc1cc(C(=O)N2CCCC(CCC(=O)NCc3cccc(OC)c3)C2)no1` (centres undefined), the EC50 (on Streptokinase A; with Streptococcus; in assay [4]) was > 150 µM (not active) throughout.

Turning to `CC(=O)Nc1ccc(NC(=O)CSc2ncc(C(=O)Nc3ccccc3)c(=O)n2C)cc1`, the EC50 at Protein RecA is 0.043 µM (active). Besides, the AC50 in assay [5] is 5.28 µM (active); in assay [6] it was 0.131 µM (active). For the compound `CCCCc1ccc(NC(S)=NCCc2ccc(F)cc2)cc1`, the EC50 at Streptokinase A is 45 µM (active); in the assay with Streptococcus, > 150 µM (not active). `COc1ccc(C(=O)NC2CCCc3c2cnn3-c2ccccc2F)o1` (centres undefined): the figures for the EC50 in assay [1], in [2] and in assay [3] were 18.9 µM (active), 22.2 µM (active) and 41 µM (active), respectively. For the compound `O=C(CCc1ccc(S(=O)(=O)NCc2ccccc2)cc1)NCc1ccco1`, the AC50 on Paired box protein Pax-8 was 47.9 µM (active). Consider `O=C1/C(=C/c2ccc(F)cc2)SC(=S)N1CC(=O)N1CCCCC1c1cccnc1` (centres undefined), for which the EC50 on Protein RecA is 30.3 µM (active). In [6], the AC50 was 13.1 µM (active).

Regarding `CC(=O)c1sc(NC(=O)CCS(=O)(=O)c2ccc(Cl)cc2)nc1C`, the AC50 at Paired box protein Pax-8 was 5.01 µM (active). Turning to `Cc1nn(Cc2ccccc2)c2c1C(c1ccncc1)C(C#N)=C(N)O2` (centres undefined), the EC50 at Protein RecA is 3.43 µM (active). For the same compound, the AC50 in assay [6] was 11.1 µM (active).

On to `C=C(C)COc1ccc(-c2n[nH]c(C)c2-c2ccccc2)c(O)c1`, for which the EC50 on Streptokinase A was 7.78 µM (active). As for `CCC(=O)Oc1ccc2c(C)cc(=O)oc2c1C(=O)c1ccccc1`, the AC50 at Paired box protein Pax-8 was 42.4 µM (active). For the compound `COCCn1c(=O)c(-c2cn(C)c3ccccc23)nc2cnc(N3CCNCC3)nc21`, the AC50 at Cytochrome P450 1A2 was 12.6 µM (inconclusive). Same read-out and setting: for `COc1ccc(C(=O)Nc2ccc(Cl)cc2C(=O)NCCN2CCOCC2)cc1` the value was 22.4 µM (inconclusive); for `C[N+](C)(CCCOc1ccccc1)c1ccccc1.O=C([O-])c1cc2ccccc2cc1O`, 12.6 µM (inconclusive). With `CCOc1ccc(NC(=O)C(c2ccccn2)N(C(=O)CCl)c2ccc(F)cc2)cc1` (centres undefined), the EC50 on Protein RecA was 2.67 µM (active). In addition, in assay [6], the AC50 is 7.1 µM (active).

`O=C(Cn1cnc2c(oc3nc4c(cc32)CCCC4)c1=O)Nc1cccc(Cl)c1`: the EC50 in assay [1] is > 120 µM (not active); in assay [2], 10.2 µM (active); in [3], 13 µM (active). As to `CCOc1ccc(S(=O)(=O)N2CCCC(C(=O)NCc3cccnc3)C2)cc1C` (centres undefined), the results for the EC50 in assay [1], in assay [2] and in assay [3] were 65.6 µM (active), 19.3 µM (active) and 14.2 µM (active), respectively. In the case of `C/C1=N/NC(=S)NCCCN2CCN(CCCNC(=S)N/N=C(/C)C=NNC(=S)NCCCN3CCN(CCCNC(=S)NN=C1)CC3)CC2`, the AC50 at Cytochrome P450 1A2 is 3.16 µM (inconclusive). On to `C[C@H]1CN([C@@H](C)CO)C(=O)Cc2cc(NC(=O)Nc3ccc4c(c3)OCO4)ccc2O[C@@H]1CN(C)Cc1ccc(-c2ccccc2)cc1`, for which, at Paired box protein Pax-8, the AC50 was 5.45 µM (active). On the same count and under the same terms, for `COC(=O)[C@H]1[C@@H](O)[C@@]2(O)c3c(OC)cc(OC)cc3O[C@@]2(c2ccc(OC)cc2)[C@@H]1c1ccc(F)cc1` the value was 0.465 µM (active).

Turning to `CC(NC(=O)C12CC3CC(CC(C3)C1)C2)C(=O)N/N=C/C1=C(N2CCOCC2)C(=C\c2ccccc2)/CC1` (centres undefined), the figures for the EC50 in [1], in assay [2] and in [3] were > 120 µM (not active), 16.4 µM (active) and 15.7 µM (active), respectively. The like results for `CCN(CC)c1ccc(/C=N/n2c(S)nnc2-c2ccccc2Br)cc1` were, in that order, > 120 µM (not active), > 120 µM (not active) and > 120 µM (not active).

For `O=C(O)C=Cc1ccc(Cn2ccnc2)cc1`, on Cytochrome P450 1A2, the AC50 is 31.6 µM (inconclusive).

Take `COc1cc(/C=N/NC(=O)CC2(C)OCCCO2)ccc1OCc1ccccc1`: the EC50 at Protein RecA is 0.81 µM (active). For the same compound, in [6], the AC50 is 2.64 µM (active). In the case of `CCNc1ccc(C(=O)N/N=C/c2c(C)nn(-c3ccccc3)c2N2CCCC2)cc1[N+](=O)[O-]`, the EC50 in assay [1] is 12.7 µM (active); in [2], 30.6 µM (active); in assay [3] it was 18.5 µM (active).

In general, EC50 refers to the concentration giving half of the maximal effect. By AC50 is commonly meant the concentration giving half of the maximal activity seen. The term IC50 denotes the point on the concentration scale where inhibition reaches its midpoint.
